Data on 30 molecules can be found in patent US10947213B1 (Merck Patent GmbH, priority 2015, dated 2021).

Structures can show the parent of a compound that is named as a salt.

The target in the assay is T1, TLR7/NFKb HEK cells (Homo sapiens, UniProt Q9NYK1).
T1 construct: expressed in transfected cells; host or cells: HEK cells (TLR7/NFKb reporter line)
T1 sequence (Q9NYK1 27-1049): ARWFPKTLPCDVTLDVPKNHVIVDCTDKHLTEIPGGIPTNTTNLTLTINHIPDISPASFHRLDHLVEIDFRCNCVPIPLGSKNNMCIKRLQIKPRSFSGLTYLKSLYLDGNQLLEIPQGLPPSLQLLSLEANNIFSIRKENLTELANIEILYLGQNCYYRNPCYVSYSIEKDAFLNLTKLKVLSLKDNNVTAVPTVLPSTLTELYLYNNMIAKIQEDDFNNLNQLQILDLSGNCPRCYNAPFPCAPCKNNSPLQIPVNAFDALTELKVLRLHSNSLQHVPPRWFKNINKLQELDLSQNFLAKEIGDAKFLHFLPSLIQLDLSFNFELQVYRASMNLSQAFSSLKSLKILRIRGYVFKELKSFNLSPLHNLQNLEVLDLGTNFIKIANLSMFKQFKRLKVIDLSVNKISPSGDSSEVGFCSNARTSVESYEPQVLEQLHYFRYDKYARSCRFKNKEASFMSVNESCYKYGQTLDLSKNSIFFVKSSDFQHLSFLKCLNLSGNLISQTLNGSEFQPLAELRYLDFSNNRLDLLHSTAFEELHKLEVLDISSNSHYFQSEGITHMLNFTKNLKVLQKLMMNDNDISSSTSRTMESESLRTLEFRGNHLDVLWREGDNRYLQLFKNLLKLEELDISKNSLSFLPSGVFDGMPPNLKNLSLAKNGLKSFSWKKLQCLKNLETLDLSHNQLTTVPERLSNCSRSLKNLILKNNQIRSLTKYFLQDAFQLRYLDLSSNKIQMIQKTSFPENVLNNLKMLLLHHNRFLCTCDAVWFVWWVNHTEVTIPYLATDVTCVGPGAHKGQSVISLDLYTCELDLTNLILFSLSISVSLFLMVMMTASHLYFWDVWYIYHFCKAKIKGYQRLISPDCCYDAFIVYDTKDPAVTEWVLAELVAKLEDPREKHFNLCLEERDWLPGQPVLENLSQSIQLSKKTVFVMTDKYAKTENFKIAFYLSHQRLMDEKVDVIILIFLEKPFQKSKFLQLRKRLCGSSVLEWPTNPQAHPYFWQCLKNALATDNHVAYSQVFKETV
In words: HEK Cell Assay (TLR7/NFKb reporter, Steady-Glo luciferase readout). It is filed as cell-based. The settings on record: 30 min compound preincubation, then R*48 agonist for 5 hours, read-out: Potency. In short, it runs like this:
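Steady-Glo luminescence after 5 h stimulation with R*48 agonist, following 30 min compound preincubation. Assay run in HEK cells carrying a TLR7/NFKb luciferase reporter, plated at 5000 cells/well and grown 24 h at 37° C (10% CO2) before treatment.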
`CC(C(=O)N[C@@H]1C[C@H](C)CN(c2ccc(C(F)(F)F)c3ncccc23)C1)N1CC(F)(F)C1` (stereo partly drawn) [Compound 287, 2-(3,3-difluoroazetidin-1-yl)-N-[(3R,5S)-5-methyl-1-[8-(trifluoromethyl)quinolin-5-yl]piperidin-3-yl]propanamide]: the IC50 was less than 1000 nM.

`C[C@H]1C[C@@H](NC(=O)C(N)C(F)(F)F)CN(c2ccc(C(N)=O)c3ncccc23)C1` (single isomer, unassigned) [Compound 185]: the IC50 is more than 10000 nM.

As for `C[C@H]1C[C@@H](NC(=O)C2(O)CC2)CN(c2ccc(C(F)(F)F)c3ncccc23)C1` [Compound 241, 1-hydroxy-N-[(3R,5S)-5-methyl-1-[8-(trifluoromethyl)quinolin-5-yl]piperidin-3-yl]cyclopropane-1-carboxamide], the IC50 was less than 1000 nM.

For the molecule `C[C@H]1C[C@@H](NC(=O)C2(C)COC2)CN(c2ccnc3nccnc23)C1` [Compound 37, 3-methyl-N-((3R,5S)-5-methyl-1-(pyrido[2,3-b]pyrazin-8-yl)piperidin-3-yl)oxetane-3-carboxamide], the IC50 was more than 10000 nM.

Turning to `O=C(CN1CCCCC1)NCC1CCN(c2ccnc3nccnc23)CC1` [Compound 388, 2-Piperidin-1-yl-N-(1-pyrido[2,3-b]pyrazin-8-yl-piperidin-4-ylmethyl)-acetamide], the IC50 was 1000 to 10000 nM.

As for `CC1CC(C(=O)NCC2CCN(C)CC2)CN(c2ccc(C#N)c3nccnc23)C1` (stereo not drawn) [Compound 539, 1-(8-Cyano-quinoxalin-5-yl)-5-methyl-piperidine-3-carboxylic acid (1-methyl-piperidin-4-ylmethyl)-amide], the IC50 was less than 1000 nM.

Regarding `C[C@H]1C[C@@H](NC(=O)CC(O)C(C)(C)C)CN(c2ccc(C#N)c3nccnc23)C1` (single isomer, unassigned) [Compound 147], the IC50 is less than 1000 nM.

Take `C[C@H]1C[C@@H](NC(=O)C2CC(F)(F)C2)CN(c2ccc(C(F)(F)F)c3nccnc23)C1` [Compound 257, 3,3-difluoro-N-[(3R,5S)-5-methyl-1-[8-(trifluoromethyl)quinoxalin-5-yl]piperidin-3-yl]cyclobutane-1-carboxamide]: the IC50 was 1000 to 10000 nM.

Turning to `CN(C(=O)CN1CCOCC1)[C@H]1C[C@@H](C2CC2)CN(c2ccc(C(F)(F)F)c3ncccc23)C1` (relative stereo) [Compound 337, cis-N-[5-cyclopropyl-1-[8-(trifluoromethyl)quinolin-5-yl]piperidin-3-yl]-N-methyl-2-(morpholin-4-yl)acetamide], the IC50 is more than 10000 nM.

On to `CC(C)(C)CC(=O)N[C@H]1C[C@@H](C(F)(F)F)CN(c2ccnc3nccnc23)C1` (relative stereo) [Compound 86, cis-3,3-dimethyl-N-[1-[pyrido[2,3-b]pyrazin-8-yl]-5-(trifluoromethyl)piperidin-3-yl]butanamide], for which the IC50 was more than 10000 nM.

On to `C[C@H]1C[C@@H](NC(=O)C(N)C2CC2)CN(c2ccc(C(F)(F)F)c3ncccc23)C1` (stereo partly drawn) [Compound 282, 2-amino-2-cyclopropyl-N-[(3R,5S)-5-methyl-1-[8-(trifluoromethyl)quinolin-5-yl]piperidin-3-yl]acetamide], for which the IC50 was less than 1000 nM.

For `CC(C(=O)N[C@@H]1C[C@H](C)CN(c2ccc(C#N)c3nccnc23)C1)N1CC(N)C1` (stereo partly drawn) [Compound 267, 2-(3-aminoazetidin-1-yl)-N-[(3R,5S)-1-(8-cyanoquinoxalin-5-yl)-5-methylpiperidin-3-yl]propanamide], the IC50 is less than 1000 nM.

For `CC(C)(C)NCC(=O)NCC1CCN(c2ccnc3nccnc23)CC1` [Compound 406, 2-tert-Butylamino-N-(1-pyrido[2,3-b]pyrazin-8-yl-piperidin-4-ylmethyl)-acetamide], the IC50 lay within 1000 to 10000 nM.

With `C[C@H]1C[C@@H](NC(=O)CC(F)(F)F)CN(c2ccc(C#N)c3nccnc23)C1` [Compound 111, N-[(3R,5S)-1-(8-cyanoquinoxalin-5-yl)-5-methylpiperidin-3-yl]-3,3,3-trifluoropropanamide], the IC50 was less than 1000 nM.

For `C[C@H]1C[C@@H](NC(=O)C(N)C(F)(F)F)CN(c2ccc(C(F)(F)F)c3ncccc23)C1` (single isomer, unassigned) [Compound 197], the IC50 was in the range of 1000 to 10000 nM.

`C[C@H]1C[C@@H](NC(=O)CN2CCCN(C)CC2)CN(c2ccc(C(F)F)c3ncccc23)C1` [Compound 314, N-[(3R,5S)-1-[8-(difluoromethyl)quinolin-5-yl]-5-methylpiperidin-3-yl]-2-(4-methyl-1,4-diazepan-1-yl)acetamide]: the IC50 is less than 1000 nM.

As for `C[C@H]1C[C@@H](NC(=O)C2CC2(F)F)CN(c2ccc(C#N)c3nccnc23)C1` (stereo partly drawn) [Compound 165, N-[(3R,5S)-1-(8-cyanoquinoxalin-5-yl)-5-methylpiperidin-3-yl]-2,2-difluorocyclopropane-1-carboxamide], the IC50 was less than 1000 nM.

Consider `CC(C)C(C)C(=O)N[C@@H]1C[C@H](C)CN(c2ccc(C#N)c3nccnc23)C1` (stereo partly drawn) [Compound 167, N-[(3R,5S)-1-(8-cyanoquinoxalin-5-yl)-5-methylpiperidin-3-yl]-2,3-dimethylbutanamide], for which the IC50 was less than 1000 nM.

`CN(C)CC(=O)NCC1CCN(c2ccnc3nccnc23)CC1` [Compound 394, 2-Dimethylamino-N-(1-pyrido[2,3-b]pyrazin-8-yl-piperidin-4-ylmethyl)-acetamide]: the IC50 is 1000 to 10000 nM.

Consider `CN(C)CC(=O)N[C@H]1C[C@@H](C(F)(F)F)CN(c2ccc(C#N)c3nccnc23)C1` (relative stereo) [Compound 222, cis-N-[1-(8-cyanoquinoxalin-5-yl)-5-(trifluoromethyl)piperidin-3-yl]-2-(dimethylamino)acetamide], for which the IC50 is less than 1000 nM.

On to `C[C@H]1C[C@@H](NC2CCNC2=O)CN(c2ccnc3nccnc23)C1` (stereo partly drawn) [Compound 127, 3-[[(3R,5S)-5-methyl-1-[pyrido[2,3-b]pyrazin-8-yl]piperidin-3-yl]amino]pyrrolidin-2-one], for which the IC50 is more than 10000 nM.

Turning to `Cc1ccc(N2C[C@@H](C)C[C@@H](NC(=O)CN3CCOCC3)C2)c2cccnc12` [Compound 466, N-[(3R,5S)-5-Methyl-1-(8-methyl-quinolin-5-yl)-piperidin-3-yl]-2-morpholin-4-yl-acetamide], the IC50 was in the range of 1000 to 10000 nM.

With `C[C@H]1C[C@@H](NC(=O)CC(C)(C)N)CN(c2ccc(C(F)(F)F)c3ncccc23)C1` [Compound 514, 3-Amino-3-methyl-N-[(3R,5S)-5-methyl-1-(8-trifluoromethyl-quinolin-5-yl)-piperidin-3-yl]-butyramide], the IC50 is less than 1000 nM.

Consider `C#CCC(=O)N[C@@H]1C[C@H](C)CN(c2ccc(C(F)(F)F)c3ncccc23)C1` [Compound 473, But-3-ynoic acid [(3R,5S)-5-methyl-1-(8-trifluoromethyl-quinolin-5-yl)-piperidin-3-yl]-amide], for which the IC50 was less than 1000 nM.

Regarding `CCN(CC)CCNC(=O)C1CCN(c2ccnc3ncccc23)CC1` [Compound 1, N-(2-(diethylamino)ethyl)-1-(1,8-naphthyridin-4-yl)piperidine-4-carboxamide], the IC50 is more than 10000 nM.

Regarding `Cc1cc2c(N3C[C@@H](C)O[C@@H](C)C3)ccnc2n1C` [Compound 46, (2S,6R)-4-(1,2-dimethyl-1H-pyrrolo[2,3-b]pyridin-4-yl)-2,6-dimethylmorpholine], the IC50 is more than 10000 nM.

Regarding `CC(C)(N)CC(=O)NC1CN(c2ccc(C#N)c3nccnc23)CC(F)(F)C1` (stereo not drawn) [Compound 505, 3-Amino-N-[1-(8-cyano-quinoxalin-5-yl)-5,5-difluoro-piperidin-3-yl]-3-methyl-butyramide hydrochloride], the IC50 lay within 1000 to 10000 nM.

In the case of `CN1CCN(CCNC(=O)C2CCN(c3ccc(C#N)c4ncccc34)CC2)CC1` [Compound 421, 1-(8-Cyano-quinolin-5-yl)-piperidine-4-carboxylic Acid [2-(4-methyl-piperazin-1-yl)-ethyl]-amide], the IC50 is less than 1000 nM.

On to `N#Cc1ccc(N2C[C@@H](NC(=O)CCC(N)=O)C[C@@H](C(F)(F)F)C2)c2cccnc12` (relative stereo) [Compound 480, cis-N-[1-(8-Cyano-quinolin-5-yl)-5-trifluoromethyl-piperidin-3-yl]-succinamide], for which the IC50 lay within 1000 to 10000 nM.

For the molecule `CC(C)[C@H](O)C(=O)N[C@@H]1C[C@H](C)CN(c2ccc(C(F)(F)F)c3ncccc23)C1` [Compound 194, (2S)-2-hydroxy-3-methyl-N-[(3R,5S)-5-methyl-1-[8-(trifluoromethyl)quinolin-5-yl]piperidin-3-yl]butanamide], the IC50 is less than 1000 nM.
